What was measured:
[1] = tested on: HeLa S3 human epithelioid cervical carcinoma cells; experiment: Cellular uptake of fluorescein-labeled dendrimers quantified by flow cytometry (FACS); type: cell-based; conditions: for saturation of uptake reached with increasing concentration: concentration increased up to 50 μM; for delivery to HeLa S3 cells (in words): 250 nM to 50 μM; for Percentage of Cellular Uptake: 4 hours, 37° C., average of two experiments
Description: HeLa S3, human epithelioid cervical carcinoma cells of approximately 50% confluency were treated with concentrations varying from 250 nM to 50 μM of each of the molecular transporters 10, 11, 12, 13, and 41 at 37° C. The molecular transporters were directly added to the media (Dulbecco's modified eagle medium containing 10% fetal bovine serum and 1× antibiotic-antimycotic), and the delivery to the cells was visualized by microscopy.
Quantification of the uptake of the molecular transporter into the cells was performed by flow cytometry 4 hours after treatment. Adherent cells, grown on 6 well plates, were displaced with trypsin, after which the cells were washed with phosphate-buffered saline (PBS). The final cell pellet was collected by centrifugation and resuspended in PBS to a concentration of approximately 1×10^6 cells/mL. A minimum of 20,000 cell events were counted and analyzed using the FACSCalibur and CellQuest brand software (BD Biosciences, San Jose, Calif.).

[2] = tested on: HeLa S3 cells; experiment: Sulphorhodamine B (SRB) cytotoxicity assay; type: cell-based, human; conditions: 4 hour treatment, concentrations up to 50 μM
Description: The cells were treated with varying concentrations (250 nM to 50 μM) of compound 12 for 4 hours at 37° C. The cells were fixed with trichloroacetic acid and were then subsequently stained with SRB dye. The cells were washed with water, and the SRB-bound complexes were solubilized in Tris buffer. The absorbance at 572 nm was measured in each sample.

[3] = Solubility in H2O noted on isolation; type: physicochemical; conditions: isolated salt

Structure (SMILES) | saturation of uptake reached with increasing concentration [1] | delivery to HeLa S3 cells (in words) [1] | Percentage of Cellular Uptake ([1]; 250 nM) | Percentage of Cellular Uptake ([1]; 500 nM) | Percentage of Cellular Uptake ([1]; 1 μM) | Percentage of Cellular Uptake ([1]; 5 μM) | Percentage of Cellular Uptake ([1]; 10 μM) | Percentage of Cellular Uptake ([1]; 25 μM) | Percentage of Cellular Uptake ([1]; 50 μM) | cytotoxic effect / cell lysis [2] | solubility in H2O [3]
Cl.Cl.Cl.N=C(N)NCCNC(=O)CCOCC(COCCC(=O)NCCNC(=N)N)(COCCC(=O)NCCNC(=N)N)NC(=O)CCNC(=S)Nc1ccc(-c2c3ccc(=O)cc-3oc3cc(O)ccc23)c(C(=O)O)c1 (stereo not shown) [Compound 10] | approximately 100% |  |  |  |  |  |  |  |  |  | 
Cl.Cl.Cl.Cl.Cl.Cl.N=C(N)NCCNC(=O)CCOCC(COCCC(=O)NCCNC(=N)N)(COCCC(=O)NCCNC(=N)N)NC(=O)CCNC(=O)c1cc(C(=O)NCCNC(=O)CCNC(=S)Nc2ccc(-c3c4ccc(=O)cc-4oc4cc(O)ccc34)c(C(=O)O)c2)cc(C(=O)NCCC(=O)NC(COCCC(=O)NCCNC(=N)N)(COCCC(=O)NCCNC(=N)N)COCCC(=O)NCCNC(=N)N)c1 (stereo not shown) [Compound 11] | approximately 100% | excellent delivery | 4.56% | 7.52% | 11.74% | 94.54% | 98.55% | 99.79% | 99.87% |  | 
Cl.Cl.Cl.Cl.Cl.Cl.Cl.Cl.Cl.N=C(N)NCCNC(=O)CCOCC(COCCC(=O)NCCNC(=N)N)(COCCC(=O)NCCNC(=N)N)NC(=O)CCNC(=O)CCOCC(COCCC(=O)NCCC(=O)NC(COCCC(=O)NCCNC(=N)N)(COCCC(=O)NCCNC(=N)N)COCCC(=O)NCCNC(=N)N)(COCCC(=O)NCCC(=O)NC(COCCC(=O)NCCNC(=N)N)(COCCC(=O)NCCNC(=N)N)COCCC(=O)NCCNC(=N)N)NC(=O)CCNC(=S)Nc1ccc(-c2c3ccc(=O)cc-3oc3cc(O)ccc23)c(C(=O)O)c1 (stereo not shown) [Compound 12] | approximately 100% | excellent delivery | 9.07% | 8.71% | 9.17% | 63.52% | 91.74% | 98.61% | 99.75% | no cytotoxic effect and did not cause cell lysis | 
Cl.Cl.Cl.Cl.Cl.Cl.Cl.Cl.Cl.Cl.Cl.Cl.N=C(N)NCCNC(=O)CCOCC(COCCC(=O)NCCNC(=N)N)(COCCC(=O)NCCNC(=N)N)NC(=O)CCNC(=O)CCOCC(COCCC(=O)NCCC(=O)NC(COCCC(=O)NCCNC(=N)N)(COCCC(=O)NCCNC(=N)N)COCCC(=O)NCCNC(=N)N)NC(=O)CCNC(=O)CCOCC(COCCC(=O)NCCC(=O)NC(COCCC(=O)NCCC(=O)NC(COCCC(=O)NCCNC(=N)N)(COCCC(=O)NCCNC(=N)N)COCCC(=O)NCCNC(=N)N)COCCC(=O)NCCC(=O)NC(COCCC(=O)NCCNC(=N)N)(COCCC(=O)NCCNC(=N)N)COCCC(=O)NCCNC(=N)N)NC(=O)CCNC(=S)Nc1ccc(-c2c3ccc(=O)cc-3oc3cc(O)ccc23)c(C(=O)O)c1 (stereo not shown) [Compound 13] | approximately 100% | excellent delivery | 3.22% | 6.59% | 11.91% | 90.79% | 96.77% | 99.11% | 99.82% |  | barely soluble in H2O
N=C(N)NCCNC(=O)CCCCCNC(=O)CCNC(=S)Nc1ccc(-c2c3ccc(=O)cc-3oc3cc(O)ccc23)c(C(=O)O)c1 [Compound 41, 5-(3-{2-[5-(2-Guanidinoethylcarbamoyl)-pentylcarbamoyl]-ethyl}-thioureido)-2-(6-hydroxy-3-oxo-3H-xanthen-9-yl)-benzoic acid] | approximately 100% |  |  |  |  |  |  |  |  |  | 
